“Also recorded” adds a separate entry of the source. Like-named read-outs stand apart in the source and are kept apart here.
Columns and labels:
HCT-116 p53−/− = assay: MTT cell viability assay; assay type: cell-based, human
Experimental: (§1) We decided to confirm whether VTD-induced tumor suppression is indeed mediated via the UBXN2A-mot-2-p53 axis (FIG. 18H). After initial verification with WB (FIG. 18A), HCT-116 (p53+/+ and p53 −/−) and LoVo were treated with VTD for 24, 48, and 72 hours (FIG. 18B-D). […] We defined this phenomenon as a delayed cytotoxic response, since it occurs through UBXN2A transcription, as previously described for other anti-cancer agents. […] In the second set of experiments, we treated two stable UBXN2A silenced clones of HCT-116 along with controls with VTD. […] Staurosporine-treated cells were used as a positive control (S4F). […] Finally, to understand the contribution of mot-2 to the anti-cancer mechanism of VTD, we used a mot-2 inhibitor known as MKT-077 [7] along with VTD in well-differentiated SW-48 (WT-p53) colon cancer cells for 72 hours. Due to the critical role of mot-2 in the mitochondria, we could not use a silencing strategy for mot-2 in this set of experiments.
(§2) The viability of cells was calculated as % of control.
(§3) FIG. 18: Veratridine (VTD) functions via the UBXN2A-mot-2-p53 axis. (A) WB confirmed the presence and the absence of p53 protein in HCT-116 p53^(+/+) and HCT-116 p53^(−/−) cancer cell lines, respectively. […] (F) In another set of experiments, UBXN2A-silenced cells were treated with VTD (100, 200, and 300 μM) for 24 hours. Cells were then labelled with Sytox Red followed by flow cytometry analysis. […] (G) SW48 well-differentiated colon cancer cells with WT-p53 were treated with MKT-077 (5 mg/ml), an mot-2 inhibitor, along with VTD for 72 hours. […] (H) This flowchart recapped the sequence of proteins which activate and function upon VTD exposure to decrease cell viability. The data is shown as mean±SEM of three independent experiments (n=3) in triplicate where *p<0.05 using Benferroni's modified student's t-test.

LoVo [1] = assay: MTT cell viability assay; assay type: cell-based, human
Experimental: as §1, §2, §3

HCT-116 p53+/+ = assay: MTT cell viability assay; assay type: cell-based, human
Experimental: as §1, §2, §3

LoVo [2] = tested on: LoVo
Experimental: (§4) Besides the cell viability assay, we decided to measure the apoptotic activity in the above combination therapy.
(§5) Cells were treated with 5-FU (5-100 μM) and etoposide (1-50 μM) along with VTD (30 and 100 μM respectively) in two different set of experiments for 24 hours.
(§6) An MTT (3[4, 5-dimethylthiazol-2-yl]-2, 5-diphenyltetrazolium bromide) assay was performed to measure the viability of cells. Briefly, cells were seeded at a density of 10×10^3 cells per well in phenol-red free growth media. After 24 hours, cells were treated with various concentrations of VTD±5-FU or etoposide. After incubation, an MTT dye was added to the cells for 2-4 hours. The absorbance of samples was measured at 630 nm using an EXL808 absorption spectrophotometer (Biotek, Winooski). The viability of cells was calculated as % of control. Cell detachment and clonogenic survival assays were conducted as previously described. Early apoptosis, caspase-3, cleaved PARP and Sytox Red (Life Technology, NY, USA) were measured by the Accuri C6 flow cytometer system (BD Pharmingen, MD, USA).[54]
(§7) (A-H) (A-C) HCT-116 and (D-F) LoVo were treated with VTD (10-300 μM) for 24, 48, and 72 hours. A suboptimal dose of Etoposide (ETO) ([…]) was added to cells for the last 24 hours only. The viability of cells was determined as % of control (untreated cells) using an MTT assay. […] (G-H) HCT-116 (G) and LoVo (H) cells were treated with VTD (10-200 μM) and a suboptimal dose of ETO (5 μM) for 24 hours. Cells were then stained with Annexin V apoptotic marker. […] (I-L) HCT-116 and LoVo cells were treated with different doses of 5-FU (5-100 μM, I-J) and ETO (1-50 μM, K-L) along with VTD (30 μM and 100 μM respectively) for 24 hours.

HCT-116 = tested on: HCT-116
Experimental: as §4, §5, §6, §7

[3] = 5-FU 5-100 μM along with VTD 100 μM, 24 hours
[4] = VTD 10-300 μM 24, 48, 72 hours plus suboptimal etoposide 5 μM for the last 24 hours
[5] = etoposide 1-50 μM along with VTD 30 μM, 24 hours
[6] = higher concentrations of VTD with etoposide 5 μM
[7] = low doses of VTD with etoposide, antagonistic

**Q.** For `COc1ccc(C(=O)O[C@H]2CC[C@@]3(C)[C@@H]4CC[C@H]5[C@]6(O)C[C@H](O)[C@@]7(O)[C@@H](CN8C[C@@H](C)CC[C@H]8[C@@]7(C)O)[C@]6(O)C[C@@]53O[C@]24O)cc1OC` [VTD, Veratridine], which “cell viability (MTT)” value (HCT-116 p53−/−; 48 and 72 hours) is on record?
**A.** The value was “started to respond to VTD at higher doses after 48 hours; also recorded: more resistance to VTD's effects”.

**Q.** And the “cell viability (MTT)” value (HCT-116 p53−/−; 24 hour treatment)?
**A.** Its value is “not sufficient to produce any cytotoxic or anti-proliferative effect”.

**Q.** And the “cell viability (MTT)” value (LoVo [1]; 48 and 72 hours)?
**A.** Its value is “reduction of cell viability reached a maximum at 72 hours; also recorded: highest sensitivity to VTD”.

**Q.** And the “cell viability (MTT)” value (LoVo [1]; 24 hour treatment, higher doses)?
**A.** Its value is “significantly decreases the viability”.

**Q.** And the “cell viability (MTT)” value (HCT-116 p53+/+; 48 and 72 hours, compared with HCT-116 p53−/−)?
**A.** Its value is “significantly lower”.

**Q.** What about the “cell viability (MTT)” value (HCT-116 p53+/+; 24 hour treatment) of the same compound?
**A.** Its value is “not sufficient to produce any cytotoxic or anti-proliferative effect”.

**Q.** What about the “combination index (CI)” value (LoVo [2]; 5-FU 5 μM with 100 μM VTD) of the same compound?
**A.** The value was 0.32.

**Q.** And the “cell viability (MTT), 5-FU effect enhanced by VTD” value (LoVo [2]; [3])?
**A.** The value was “significantly enhanced the 5-FU and etoposide effects on cell viability”.

**Q.** And the “cell viability (MTT), combination” value (LoVo [2]; [4])?
**A.** Its value is “significantly potentiates the cytotoxic effect of VTD”.

**Q.** And the “combination index (CI)” value (LoVo [2]; etoposide 1 μM with 30 μM VTD)?
**A.** Its value is 0.275.

**Q.** What about the “VTD concentration at which VTD and etoposide start to act synergistically” value (LoVo [2]; etoposide 5 μM) of the same compound?
**A.** The value was 100 µM.

**Q.** What about the “cell viability (MTT), etoposide effect enhanced by VTD” value (LoVo [2]; [5]) of the same compound?
**A.** The value was “significantly enhanced the 5-FU and etoposide effects on cell viability”.

**Q.** What about the “combination index (CI)” value (LoVo [2]; [6]) of the same compound?
**A.** Its value is no more than 0.4.

**Q.** And the “combination index (CI)” value (LoVo [2]; [7])?
**A.** Its value is greater than 1.

**Q.** What about the “combination index (CI)” value (HCT-116; 5-FU 75 μM combined with 100 μM VTD) of the same compound?
**A.** Its value is 0.165.

**Q.** And the “combination index (CI)” value (HCT-116; 5-FU 100 μM combined with 100 μM VTD)?
**A.** Its value is 0.109.

**Q.** What about the “cell viability (MTT), 5-FU effect enhanced by VTD” value (HCT-116; [3]) of the same compound?
**A.** The value was “significantly enhanced the 5-FU and etoposide effects on cell viability”.

**Q.** And the “combination index (CI)” value (HCT-116; VTD 30 μM with etoposide 5 μM)?
**A.** The value was 0.516.

**Q.** And the “cell viability (MTT), combination” value (HCT-116; [4])?
**A.** Its value is “significantly potentiates the cytotoxic effect of VTD”.

**Q.** And the “cell viability (MTT), etoposide effect enhanced by VTD” value (HCT-116; [5])?
**A.** Its value is “significantly enhanced the 5-FU and etoposide effects on cell viability”.

**Q.** And the “combination index (CI)” value (HCT-116; [6])?
**A.** Its value is no more than 0.4.

**Q.** And the “combination index (CI)” value (HCT-116; [7])?
**A.** The value was greater than 1.

Source: patent US12233129B2, “Methods and compositions for the treatment of cancer” (priority 2019, dated 2025)
